We go through 8 compounds from patent US20080107722A1, “Method For Loading Multiple Agents Into Delivery Vehicles” (priority 2004, published 2008).

A short description of data set [1]: Simultaneous loading of FUDR and daunorubicin into preformed DSPC/DSPG/Cholesterol liposomes. It counts as physicochemical. Particulars: 50° C.; for loading in liposomes: 100 mM Cu(II)gluconate pH 7.0, FIG. 3; for retention during the course of the experiment: FIG. 3. The procedure: (§1) At various time points after initiation of drug loading, aliquots were removed and passed through a Sephadex® G-50 spin column to separate free from encapsulated drug. To a specified volume of eluant, Triton X-100 or N-ocyl beta-D-glucopyranoside (OGP) was added to solubilize the liposomes. Following addition of detergent, the mixture was heated to the cloud point of the detergent and allowed to cool to room temperature before measurement of the absorbance or fluorescence. Drug concentrations were calculated by comparison to a standard curve. Lipid levels were measured by liquid scintillation counting.
FUDR and daunorubicin were loaded at 50° C. into pre-formed DSPC/DSPG/Cholesterol liposomes (70:20:10) containing 100 mM Cu(II)gluconate adjusted to pH 7.0 with triethanolamine (TEA). The liposomes were buffer exchanged into 300 mM sucrose, 40 mM phosphate, 1 mM EDTA, pH 7.0 by crossflow dialysis to remove any copper(II)gluconate from the extraliposomal solution. Prior to addition of drugs, the liposomes were diluted in SPE and preheated at 50° C. for one minute. FUDR (with trace amounts of ^3H-FUDR) and daunorubicin were combined then added simultaneously to the pre-heated liposomes. FUDR was added at a drug concentration of 60 μmol/mL and daunorubicin was added at a drug-to-lipid mole ratio of 0.1:1. […] Aliquots were removed and analyzed for drug and lipid content at designated time intervals. The extent of daunorubicin loading was determined spectrophotometrically and FUDR and lipid levels were determined by liquid scintillation counting.

Data set [2] in a line: Simultaneous loading of FUDR and cpt-11 into DSPC/Cholesterol (high-cholesterol) liposomes. Particulars: 50° C.; for loading in liposomes: DSPC/Cholesterol, 100 mM Cu(II)gluconate pH 7.0; for drug ratio of FUDR-to-cpt-11 during the course of the experiment: FIG. 6. It counts as physicochemical. The procedure:
as §1
Lipid films of DSPC/Cholesterol at a mole ratio of 55:45 were prepared as previously described and then hydrated in 100 mM Cu(II)gluconate, adjusted to pH 7.0 with triethanolamine (TEA). The liposomes were buffer exchanged into SPE, pH 7.0. Prior to addition of drugs, the liposomes were preheated to 50° C. for one minute. FUDR (with tracer amounts of ^3H-FUDR) and cpt-11 were combined then added simultaneously to the pre-heated liposomes. FUDR was added to a final drug concentration of 110 μmol/mL and cpt-11 was added to a final drug concentration of 7.5 μmol/mL. The liposomes and drugs were incubated for one hour to allow for the passive uptake of FUDR concurrent with the active uptake of Irinotecan. Aliquots were removed and analyzed for drug and lipid content at designated time intervals. The extent of cpt-11 loading was determined spectrophotometrically and FUDR and lipid levels were determined by liquid scintillation counting.

Data set [3] in a line: Simultaneous loading of irinotecan and floxuridine into low cholesterol DSPC/DSPG/Cholesterol liposomes (data not shown). It is filed as physicochemical. Particulars: low cholesterol-containing DSPC/DSPG/Cholesterol liposomes.
The nature of data set [4]: Simultaneous loading of cytarabine and daunorubicin into preformed DSPC/DSPG/Cholesterol (70:20:10) liposomes, effect of temperature. It counts as physicochemical. Particulars: for loading and retention in liposomes: 40° C., 100 mM Cu(II)gluconate pH 7.4 inside, FIG. 1A. The procedure:
(§2) Lipids were dissolved in chloroform:methanol:water (95:4:1 vol/vol/vol) and subsequently dried under a stream of nitrogen gas and placed in a vacuum pump to remove solvent. Unless otherwise specified, trace levels of radioactive lipid ^14C-DPPC was added to quantify lipid during the formulation process. The resulting lipid film was placed under high vacuum for a minimum of 2 hours. The lipid film was hydrated in the solution indicated to form multilamellar vesicles (MLVs). The resulting preparation was extruded 10 times through stacked polycarbonate filters with an extrusion apparatus (Lipex Biomembranes, Vancouver, BC) to achieve a mean liposome size between 80 and 150 nm. All constituent lipids of liposomes are reported in mole %.
as §1
Lipid films of DSPC/DSPG/Cholesterol at a mole ratio of 70:20:10 were prepared as described above in the method section. The lipid films were hydrated in 100 mM Cu(II)gluconate adjusted to pH 7.4 with triethanolamine (TEA) and extruded at 70° C. The liposomes were buffer exchanged into 300 mM sucrose, 20 mM phosphate, 1 mM EDTA (SPE), pH 7.4 by crossflow dialysis to remove any copper(II)gluconate from the extraliposomal solution. Prior to addition of drugs, the liposomes were preheated to the appropriate loading temperature for one minute. […] Aliquots were removed and analyzed for drug and lipid content at designated time intervals.

Data set [5] can be described thus: Simultaneous loading of cytarabine and daunorubicin into DSPC/DSPG/Cholesterol liposomes, effect of internal Cu(II)gluconate concentration. It is filed as physicochemical. Conditions: 50° C.; for daunorubicin loading (percent encapsulation): FIG. 2B. The procedure: as §2, §1
Lipid films of DSPC/DSPG/Cholesterol at a mole ratio of 70:20:10 were prepared as described above in the method section. The lipid films were hydrated in the designated Cu(II)gluconate concentration and adjusted to pH 7.0 with triethanolamine (TEA). The liposomes were buffer exchanged into 300 mM sucrose, 20 mM sodium phosphate, pH 7.0 by crossflow dialysis to remove any copper(II)gluconate from the extraliposomal solution. Prior to addition of drugs, the liposomes were diluted in SPE and preheated at 50° C. for one minute. […] Aliquots were removed and analyzed for drug and lipid content at designated time intervals. The extent of daunorubicin loading was determined spectrophotometrically and cytarabine and lipid levels were determined by liquid scintillation counting.

A short description of data set [6]: Simultaneous loading of daunorubicin and cytarabine into DMPC/Cholesterol liposomes by citrate pH-gradient. It is filed as physicochemical. Conditions: 45° C. versus room temperature or 40° C., 300 mM citrate pH 4 inside, FIG. 5. The procedure:
as §1
Aliquots were removed and analyzed for drug and lipid content at designated time intervals.

Data set [7] in a line: Simultaneous loading of gemcitabine and doxorubicin into preformed liposomes. It is filed as physicochemical. Particulars: for loading and retention in liposomes: 60° C., DSPC/DSPG/Cholesterol 70:20:10, FIG. 4C; for simultaneous loading in high cholesterol-containing liposomes: DMPC/Cholesterol liposomes. The procedure: as §1
Gemcitabine and doxorubicin were loaded into DSPC/DSPG/Cholesterol liposomes at 37° C., 50° C. and 60° C. […] The lipid films were hydrated in 100 mM Cu(II)gluconate, adjusted to pH 7.4 with triethanolamine (TEA) and extruded at 70° C. The liposomes were buffer exchanged into HBS, pH 7.4 by crossflow dialysis. Prior to addition of drugs, the liposomes were preheated to the appropriate loading temperature for one minute. Gemcitabine (with tracer amounts of ^3H-gemcitabine) and doxorubicin were combined then added simultaneously to the pre-heated liposomes. Gemcitabine was added to a drug concentration of 30 μmol/mL and doxorubicin was added to a drug concentration of 33 μmol/mL. […] Aliquots were removed and analyzed for drug and lipid content at designated time intervals. The extent of doxorubicin loading was determined spectrophotometrically and gemcitabine and lipid levels were determined by liquid scintillation counting.

The conditions of data set [8]: passive then Na+/K+ gradient with valinomycin; cited from earlier work.
For data set [9] the following is noted: co-loaded with mitoxantrone in a single liposome; cited from earlier work.
Where [10] appears, read: 37° C., DSPC/DSPG/Cholesterol 70:20:10, FIG. 4A.
[11] abbreviates: 50° C., DSPC/DSPG/Cholesterol 70:20:10, FIG. 4B.

For the compound `O=c1[nH]c(=O)n([C@H]2C[C@H](O)[C@@H](CO)O2)cc1F` [FUDR, Floxuridine], the loading in liposomes entry is recorded as “loaded to sufficient levels” in [1], “effectively loaded” in [2] and “sufficient” in data set [3]. Besides, in data set [1], the “retention during the course of the experiment” value is “well maintained”. For the same compound, in [2], the “drug ratio of FUDR-to-cpt-11 during the course of the experiment” value is reported as “maintained at a sufficient level”.

Consider `CCc1c2c(nc3ccc(OC(=O)N4CCC(N5CCCCC5)CC4)cc13)-c1cc3c(c(=O)n1C2)COC(=O)[C@]3(O)CC` [cpt-11, irinotecan], for which the loading in liposomes result was “effectively loaded” in data set [2] and “sufficient” in data set [3]. The “drug ratio of FUDR-to-cpt-11 during the course of the experiment” value in data set [2] was “maintained at a sufficient level”.

For the compound `Nc1ccn([C@@H]2O[C@H](CO)[C@@H](O)[C@@H]2O)c(=O)n1` [cytarabine], the “loading and retention in liposomes” value in [4] is recorded as “less than desirable”. Also, in [4] (50° C., FIG. 1B), the loading in liposomes result is recorded as “load to adequate levels” and the “retention in liposomes during the experiment” value is recorded as “effectively retained”. Moreover, the loading in liposomes result in data set [4] (60° C., FIG. 1C) is “compromised compared to loading at 50 °C”. Also, in data set [5] (25, 50, 75 and 100 mM Cu(II)gluconate, FIG. 2A), the “cytarabine loading during simultaneous uptake of daunorubicin” value was “sufficient”. Moreover, the “extent of cytarabine loading” value in [5] (25 and 50 mM versus 75 mM and 100 mM Cu(II)gluconate, FIG. 2A) was “improved”.

As for `COc1cccc2c1C(=O)c1c(O)c3c(c(O)c1C2=O)C[C@@](O)(C(C)=O)C[C@@H]3O[C@H]1C[C@H](N)[C@H](O)[C@H](C)O1` [daunorubicin], in [4], the “loading and retention in liposomes” value is “efficiently loaded and retained”. In [4] (50° C., FIG. 1B), the loading in liposomes result is listed as “load to adequate levels” and the “retention in liposomes during the experiment” value is “effectively retained”. Besides, in [4] (60° C., FIG. 1C), the loading in liposomes entry was “loads at this temperature” and the retention in liposomes entry is recorded as “not well-retained”. For the same compound, the “daunorubicin loading (percent encapsulation)” value in data set [5] (25 mM copper gluconate) is reported as “compromised”. In addition, the “daunorubicin loading (percent encapsulation)” value in data set [5] (100 mM, 75 mM and 50 mM copper gluconate) is “sufficient”. Besides, in [1], the loading in liposomes entry is given as “loaded to sufficient levels” and the “retention during the course of the experiment” value is “well maintained”. For the same compound, in data set [6], the simultaneous loading efficiency entry was “more efficient”.

Turning to `COc1cccc2c1C(=O)c1c(O)c3c(c(O)c1C2=O)C[C@@](O)(C(=O)CO)C[C@@H]3O[C@H]1C[C@H](N)[C@H](O)[C@H](C)O1` [doxorubicin], the loading in liposomes entry in [7] (setting [10]) was “did not load to sufficient levels”; in [7] (setting [11]) it was “superior to the gemcitabine loading”. For the same compound, in data set [7], the “loading and retention in liposomes” value is “Optimal loading and retention”. Also, in data set [7], the “simultaneous loading in high cholesterol-containing liposomes” value was “hindered by aggregation”.

Regarding `Nc1ccn([C@@H]2O[C@H](CO)[C@@H](O)C2(F)F)c(=O)n1` [gemcitabine, Gemcitabine], the loading in liposomes entry in data set [7] (setting [10]) was “could load effectively”; in data set [7] (setting [11]), “load to minimal levels and then quickly leaks”. Moreover, in data set [7], the “loading and retention in liposomes” value is “Optimal loading and retention”. Besides, in [7], the “simultaneous loading in high cholesterol-containing liposomes” value is listed as “hindered by aggregation”.

As to `CN(Cc1cnc2nc(N)nc(N)c2n1)c1ccc(C(=O)N[C@@H](CCC(=O)O)C(=O)O)cc1` [methotrexate], the available drug encapsulated in data set [8] is 33%.

`CC[C@]1(O)C[C@H]2CN(CCc3c([nH]c4ccccc34)[C@@](C(=O)OC)(c3cc4c(cc3OC)N(C=O)[C@H]3[C@@](O)(C(=O)OC)[C@H](OC(C)=O)[C@]5(CC)C=CCN6CC[C@]43[C@@H]65)C2)C1` [vincristine]: in data set [9], the “release of entrapped drug in vivo” value is “rapid release”.
